Assay results published in article PMC7323874, “Vancomycin Resistance Is Overcome by Conjugation of Polycationic Peptides” (Angewandte Chemie (International Ed. in English), 2020).

Tests used:
[1] = Molecular imaging (PET, scintigraphy) and biodistribution of radiolabeled compounds; type: in vivo, female Wistar rats; settings: for scintigraphy, distribution and excretion: i.v.
Experimental: Biodistribution and pharmacokinetic studies
The biodistribution and pharmacokinetic studies were performed with radiolabeled (124I/125I) compounds. For this radiolabeling strategy, a D-tyrosine-modified derivative was synthesized, which enabled the […] substitution. The D-tyrosine was located at the N-terminus of the respective peptide. Vancomycin was radiolabeled without any further structural modification. For radiolabeling, a 1 mM stock solution of phosphate buffer/dimethyl sulfoxide was prepared as described previously by Uhl et al.12 The required amount of radioactive iodine-124 (124I) or rather iodine-125 (125I) was added to a mixture of 25 µl of the stock solution and 25 µl of a phosphate buffer (0.25 mM; pH 7.5). Radiolabeling was performed using the chloramine T method as previously described by Crim et al.13 The labeled compound was purified by semi-preparative HPLC. Analysis was done by radio-HPLC (Agilent 1100 series) using a Chromolith® Performance RP-18e, 100–3 mm column applying a linear gradient of 0.1% TFA in water (eluent A) to 0.1% TFA in acetonitrile (eluent B) within 5 min; flow rate 2 ml/min; UV absorbance λ = 214 nm; γ-detection. The animal trials were approved by the Animal Care and Use committees at the Regierungspräsidium Karlsruhe, Germany. Adult, female, Wistar rats (200 – 250 g) were purchased from Janvier Labs (Le Genest-Saint-Isle, France). The animals were anaesthetized by isoflurane inhalation and appropriate amounts of the 124I/125I labelled peptides, dissolved in 100 µl of 0.9% NaCl were injected into the tail vein. For PET-imaging, an Inveon small animal PET scanner (Siemens) was used. Therefore, the animals were sacrificed 10 min or 60 min after injection of the radiolabeled compound and images were taken afterwards. The scintigraphic images were obtained using a γ-camera (Gamma Imager, Biospace, France). Cumulative images from 0–10 min, 60–70 min and 120–130 min after injection, were taken. For the biodistribution studies, the animals were sacrificed at certain time points, the organs were removed and weighed and the radioactivity of each sample was measured using a Cobra Auto γ-Counter, (Packard Bioscience, USA) in comparison with standards. The tissue-associated activity was related to the total injected dose (ID) and expressed as a percentage of the total injected dose per gram of tissue (%ID/g).
In vivo infection experiments
Animal studies were approved by the local government of Lower Franconia, Germany (approval number 55.2-2532-2-57) and performed in strict accordance with the guidelines for animal care and experimentation of German Animal Protection Law and the DIRECTIVE […]
For the in vivo experiments, we applied S. aureus strain USA300 LAC* lux, which was constructed by transducing the luxABCDE operon from S. aureus Xen29 (PerkinElmer, Waltham, MA, USA) with phage φ11 into S. aureus LAC* (AH2163).14 Overnight cultures of S. aureus USA300 LAC* lux in BHI medium were diluted to a final OD600 nm of 0.05 in 50 ml fresh BHI medium and grown for 3.5 hours at 37 °C. After centrifugation, the cell pellet was resuspended in BHI with 20 % glycerol, aliquoted and stored at -80 °C. For the generation of in vivo infection inocula, aliquots were thawed and washed twice with PBS. The desired bacterial concentration (5 x 10^7 CFU/100 µl) was then adjusted based on the respective OD600 nm values. A sample of the infection inoculum was plated on TSB agar plates in order to control the infection dose.
Female Balb/c mice (6 weeks, Janvier Labs, Le Genest-Saint-Isle, France) were used for all experiments.
Mice were infected by intravenous application of the bacterial inoculum via the tail vein. Treatment started at 2 hours p.i. and following doses were applied every 12 hours. The vancomycin group received 30 mg/kg body weight/ per day, the FU002 group received 56.4 mg/kg body weight/per day, the control group received equal amounts of sterile PBS at the respective time points. The mice were […]

[2] = system: E. faecium UL602570*; assay: microbe, parasite or virus in culture; type: cell-based
Experimental: Antimicrobial testing – Microdilution
Antimicrobial testing was performed according to CLSI and EUCAST guidelines in microdilution.8-10 Therefore, all tested substances as well as controls were dissolved in water in different concentrations and serially diluted in MHB II (cation adjusted) on the 96-well plate. A logarithmic growing, overnight culture of the respective bacterial strain was used and adjusted to a McFarland corresponding to 1 × 10^8 cfu/ml. Afterwards the bacterial suspension was diluted to 1 ×10^6 cfu/ml and loaded on the 96-well polypropylene plates, resulting in a final bacterial concentration of 5 × 10^5 cfu/ml. After an incubation at 35 ± 1 °C for 18-20 hours (re-controlled after 24 hours) the MIC was determined as the lowest concentration without visible growth as described previously.11 For direct comparison of the tested substances, all results were calculated in mg/ml and mol/ml afterwards. […]
Resistance development in S. aureus was determined by passaging bacteria in increasing amounts of vancomycin, FU002 or, as control, fusidic acid. In principle, tubes with twofold dilutions of the compounds in 1 ml Muller Hinton broth were inoculated 1:100 with bacterial suspension. […]
For the validation of possible side effects provoked by the conjugates, the cytotoxic effect of the lead candidate FU002 on human cells was assessed in a colorimetric viability assay. […]

[3] = 125I-labeled compounds (FU002 as 125I-FU002y), 10 min post injection
[4] = 125I-labeled compounds (FU002 as D-Tyr derivative), 60 min post injection

## CN[C@H](CC(C)C)C(=O)N[C@H]1C(=O)N[C@@H](CC(N)=O)C(=O)N[C@H]2C(=O)N[C@H]3C(=O)N[C@H](C(=O)N[C@H](C(=O)O)c4cc(O)cc(O)c4-c4cc3ccc4O)[C@H](O)c3ccc(c(Cl)c3)Oc3cc2cc(c3O[C@@H]2O[C@H](CO)[C@@H](O)[C@H](O)[C@H]2O[C@H]2C[C@](C)(N)[C@H](O)[C@H](C)O2)Oc2ccc(cc2Cl)[C@H]1O [vancomycin]
[1]; 124I-labeled compounds, i.v. tail vein, 10 min post injection
  PET imaging, distribution and excretion: renal excretion
[1]; [3]
  scintigraphy, distribution and excretion: fast, renal excretion
[1]; [4]
  scintigraphy, distribution and excretion: almost completely excreted and only found in the bladder
[2]; Enterococcus faecium, read-out: MIC of E. faecium UL602570*
  MIC: > 64 µg/mL

## CC(C)C[C@H](C(=O)N[C@H]1C(=O)N[C@@H](CC(N)=O)C(=O)N[C@H]2C(=O)N[C@H]3C(=O)N[C@H](C(=O)N[C@H](C(=O)O)c4cc(O)cc(O)c4-c4cc3ccc4O)[C@H](O)c3ccc(c(Cl)c3)Oc3cc2cc(c3O[C@@H]2O[C@H](CO)[C@@H](O)[C@H](O)[C@H]2O[C@H]2C[C@](C)(N)[C@H](O)[C@H](C)O2)Oc2ccc(cc2Cl)[C@H]1O)N(C)C(=O)C1CCC(CN2C(=O)CC(SC[C@H](NC(=O)[C@H](CCCNC(=N)N)NC(=O)[C@H](CCCNC(=N)N)NC(=O)[C@H](CCCNC(=N)N)NC(=O)[C@H](CCCNC(=N)N)NC(=O)[C@H](CCCNC(=N)N)NC(=O)[C@@H](N)CCCNC(=N)N)C(N)=O)C2=O)CC1 (stereo partly drawn) [FU002]
[1]; [3]
  scintigraphy, distribution and excretion: directs in the liver and the kidneys
[1]; [4]
  scintigraphy, distribution and excretion: much slower excretion
[1]; 125I-labeled, 10 min post injection, compared with vancomycin
  biodistribution, organ uptake: much higher organ uptake
[1]; 125I-labeled, after 1 hour, compared with vancomycin
  biodistribution, retention in organ: remains much longer in the corresponding organ
[2]; comparison of conjugate, equimolar non-covalent mixture and vancomycin
  MIC of E. faecium UL602570*: 1 µg/mL
